Source: PMC2574866 (Drug metabolism and disposition: the biological fate of …, 2008)
Read-outs that look alike come from different tables or passages of the source.

What was measured:
[1] = molecular target: bovine serum albumin (BSA) / essentially fatty acid-free BSA (BSA-FAF) (Bos taurus, UniProt P02769)
[2] = system: sandwich-cultured rat hepatocytes; conditions: for biliary excretion index (BEI), effect of BSA-FAF / unbound intrinsic biliary clearance (intrinsic Cl'biliary), effect of BSA-FAF: 4% (w/v) BSA-FAF vs no BSA or BSA
[3] = literature value, cited from earlier work
[4] = 4% (w/v) BSA vs no BSA, 10 min incubation
[5] = addition of 1 mM Ca2+ (calcium chloride) to BSA-FAF, n = 1 liver
[6] = six long chain fatty acids added to BSA-FAF, n = 1 liver

Chain of bovine serum albumin (BSA) / essentially fatty acid-free BSA (BSA-FAF) (P02769 25-607): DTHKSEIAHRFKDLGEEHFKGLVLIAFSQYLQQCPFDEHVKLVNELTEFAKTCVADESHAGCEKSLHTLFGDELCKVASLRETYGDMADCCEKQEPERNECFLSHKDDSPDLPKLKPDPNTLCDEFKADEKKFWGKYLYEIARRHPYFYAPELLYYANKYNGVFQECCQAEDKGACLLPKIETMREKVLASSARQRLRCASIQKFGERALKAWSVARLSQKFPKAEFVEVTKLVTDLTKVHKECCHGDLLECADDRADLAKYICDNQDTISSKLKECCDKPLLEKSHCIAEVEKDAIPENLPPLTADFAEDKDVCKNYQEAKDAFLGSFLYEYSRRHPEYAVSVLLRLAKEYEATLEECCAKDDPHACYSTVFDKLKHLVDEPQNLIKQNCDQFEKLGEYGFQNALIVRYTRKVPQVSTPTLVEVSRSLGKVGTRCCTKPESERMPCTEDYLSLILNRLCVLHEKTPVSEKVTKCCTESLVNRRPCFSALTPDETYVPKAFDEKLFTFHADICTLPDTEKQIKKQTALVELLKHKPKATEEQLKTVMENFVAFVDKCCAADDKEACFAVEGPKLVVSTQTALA

Row | fu dependence on compound concentration [1] | fu in the presence of BSA compared to BSA-FAF [1] | biliary excretion index (BEI), effect of BSA [2, 4] | unbound intrinsic biliary clearance (intrinsic Cl'biliary), effect of BSA [2, 4] | biliary excretion index (BEI), effect of BSA-FAF ([2]; 10 min incubation) | unbound intrinsic biliary clearance (intrinsic Cl'biliary), effect of BSA-FAF ([2]; 10 min incubation) | BEI in the presence of BSA-FAF, effect of additional Ca2+ [2, 5] | intrinsic Cl'biliary in the presence of BSA-FAF, effect of additional Ca2+ [2, 5] | fu in the presence of BSA-FAF, effect of addition of long chain fatty acids [1] | BEI in the presence of BSA-FAF, effect of addition of long chain fatty acids [2, 6] | intrinsic Cl'biliary in the presence of BSA-FAF, effect of addition of long chain fatty acids [2, 6] | SMILES | unbound fraction (fu) ([3]; ref Lacy et al., 2002) | unbound fraction (fu) ([3]; ref Hatanaka, 2000) | binding to albumin ([1]; bovine) | accumulation in sandwich-cultured rat hepatocytes ([2]; in the presence of BSA or BSA-FAF vs no BSA) | unbound fraction (fu) ([3]; ref Forker and Luxon, 1981, Hung et al., 2005)
1 | concentration-independent | significantly higher | not altered | not altered | significantly decreased | significantly decreased | unable to restore | unable to restore | – | – | – | C[C@H]1O[C@@H](O[C@H]2[C@@H](O)C[C@H](O[C@H]3[C@@H](O)C[C@H](O[C@H]4CC[C@@]5(C)[C@H](CC[C@@H]6[C@@H]5C[C@@H](O)[C@]5(C)[C@@H](C7=CC(=O)OC7)CC[C@]65O)C4)O[C@@H]3C)O[C@@H]2C)C[C@H](O)[C@@H]1O [digoxin] | ~ 0.7 | – | – | – | –
2 | concentration-independent | significantly higher | – | not significantly different | significantly decreased | significantly decreased | – | – | unable to mitigate this effect | unable to mitigate this effect | unable to mitigate this effect | CC[C@H](C)C(=O)O[C@H]1C[C@H](O)C=C2C=C[C@H](C)[C@H](CC[C@@H](O)C[C@@H](O)CC(=O)O)[C@H]21 [pravastatin] | – | ~ 0.5 | – | – | –

Row | SMILES | fu dependence on compound concentration [1] | fu in the presence of BSA compared to BSA-FAF [1] | biliary excretion index (BEI), effect of BSA [2, 4] | unbound intrinsic biliary clearance (intrinsic Cl'biliary), effect of BSA [2, 4] | biliary excretion index (BEI), effect of BSA-FAF ([2]; 10 min incubation) | unbound intrinsic biliary clearance (intrinsic Cl'biliary), effect of BSA-FAF ([2]; 10 min incubation) | BEI in the presence of BSA-FAF, effect of additional Ca2+ [2, 5] | intrinsic Cl'biliary in the presence of BSA-FAF, effect of additional Ca2+ [2, 5] | fu in the presence of BSA-FAF, effect of addition of long chain fatty acids [1] | BEI in the presence of BSA-FAF, effect of addition of long chain fatty acids [2, 6] | intrinsic Cl'biliary in the presence of BSA-FAF, effect of addition of long chain fatty acids [2, 6] | unbound fraction (fu) ([3]; ref Lacy et al., 2002) | unbound fraction (fu) ([3]; ref Hatanaka, 2000) | binding to albumin ([1]; bovine) | accumulation in sandwich-cultured rat hepatocytes ([2]; in the presence of BSA or BSA-FAF vs no BSA) | unbound fraction (fu) ([3]; ref Forker and Luxon, 1981, Hung et al., 2005)
3 | C[C@H](CCC(=O)NCCS(=O)(=O)O)[C@H]1CC[C@H]2[C@@H]3[C@H](O)C[C@@H]4C[C@H](O)CC[C@]4(C)[C@H]3C[C@H](O)[C@]12C [taurocholate] | concentration-independent | significantly higher | – | unaffected | – | – | – | – | – | – | – | – | – | approximately 85% | notably decreased | ~ 0.15
